Calls of active or inactive are those of the source. The calls are words filed in the database; no cut-off is given here.
Columns and labels:
[1] = Haemolytic activity in sheep erythrocytes assessed as induction of haemolysis at 50 ug/ml incubated for 2 hrs relative to control; assay type: cell-based, Ovis aries, Erythrocyte; settings: read-out: Activity
[2] = Solubility of the compound in 10% DMSO solution; assay type: physicochemical
Clostridioides difficile [3] = assay: Antibacterial activity against Clostridium difficile ATCC 700057 incubated for 2 to 4 hrs in pre-reduced brucella broth supplemented with haemin/vitamin K and further incubation in anaerobic condition for 48 hrs; assay type: functional
[4] = Drug accumulation in blood of antibiotic cocktail-induced CDI C57BL/6J mouse model infected with Clostridium difficile ribotype 027 M7404 spores at 100 mg/kg administered via oral gavage for every 12 hrs starting from 6 hrs post-infection by LRMS analysis; assay type: ADME, organism-based; settings: in vivo
[5] = Drug accumulation in feces of antibiotic cocktail-induced CDI C57BL/6J mouse model infected with Clostridium difficile ribotype 027 M7404 spores at 100 mg/kg administered via oral gavage for every 12 hrs starting from 6 hrs post-infection by LRMS analysis; assay type: ADME, organism-based; settings: in vivo
Clostridioides difficile [6] = assay: (§1) Antibacterial activity against Clostridium difficile ribotype 027 M7404 spores infected in antibiotic cocktail-induced CDI C57BL/6J mouse model assessed as survival rate at 100 mg/kg administered via oral gavage for every 12 hrs starting from 6 hrs post-infection and measured at 24 hrs post infection (reference value: 0%); assay type: functional, genomovar ribotype 027 M7404
Clostridioides difficile [7] = assay: as §1, with “decrease in diarrhea” for “survival rate”, “infection” for “infection (reference value: 0%)”; assay type: functional, organism-based; settings: genomovar ribotype 027 M7404
[8] = Drug localization in blood of C57BL/6J mouse measured after 2 hr by LRMS analysis; assay type: ADME, tissue-based
Klebsiella pneumoniae = assay: Growth inhibition of Klebsiella pneumoniae ATCC 700603 incubated for 18 hrs; assay type: organism-based
[9] = Cytotoxicity against HEK293 cells assessed as decrease in cell viability after 20 hrs by resazurin dye-based fluorescence assay; settings: human
Streptococcus pneumoniae = assay: Growth inhibition of Streptococcus pneumoniae ATCC 49619 incubated in MHB medium with lysed horse blood and 5% CO2 for 24 hrs; assay type: organism-based
Escherichia coli [10] = assay: Growth inhibition of Escherichia coli ATCC 25922 incubated for 18 hrs; assay type: organism-based
Enterococcus faecalis = assay: Growth inhibition of Enterococcus faecalis ATCC 29212 incubated in MHB broth for 24 hrs; assay type: organism-based
Acinetobacter baumannii = assay: Growth inhibition of Acinetobacter baumannii ATCC 19606 incubated for 18 hrs without shaking by absorbance based monochromator plate reader analysis; assay type: organism-based, ATCC 19606 = CIP 70.34 = JCM 6841; settings: in vitro
[11] = Aqueous solubility of the DMSO-dissolved compound in >200 uL water at 5 mg; assay type: physicochemical; settings: buffer
Pseudomonas aeruginosa = assay: Growth inhibition of Pseudomonas aeruginosa ATCC 27853 incubated for 18 hrs; assay type: organism-based
Staphylococcus aureus [12] = assay: Growth inhibition of Staphylococcus aureus ATCC 29213 incubated in MHB broth for 24 hrs; assay type: organism-based
Staphylococcus aureus [13] = assay: Growth inhibition of methicillin-resistant Staphylococcus aureus ATCC 43300 incubated for 18 hrs; assay type: organism-based
Clostridioides difficile [14] = assay: Antibacterial activity against Clostridium difficile NSW132 RT027 incubated for 2 to 4 hrs in pre-reduced brucella broth supplemented with haemin/vitamin K and further incubation in anaerobic condition for 48 hrs; assay type: functional
[15] = Haemolytic activity in sheep erythrocytes assessed as induction of haemolysis at 5 ug/ml incubated for 2 hrs relative to control; assay type: cell-based, Ovis aries, Erythrocyte; settings: read-out: Activity
Clostridioides difficile [16] = assay: as §1, with “decrease in weight loss” for “survival rate”, “infection” for “infection (reference value: 0%)”; assay type: functional, organism-based; settings: genomovar ribotype 027 M7404
Clostridioides difficile [17] = assay: Antibacterial activity against Clostridium difficile ribotype 027 M7404; assay type: functional; settings: genomovar ribotype 027 M7404
Clostridioides difficile [18] = assay: as §1, with “protection against bacterial infection” for “survival rate”, “2 days” for “24 hrs”, “infection” for “infection (reference value: 0%)”; assay type: functional, organism-based; settings: genomovar ribotype 027 M7404
Clostridioides difficile [19] = assay: as §1, with “decrease in physiological appearance score” for “survival rate”, “infection” for “infection (reference value: 0%)”; assay type: functional, organism-based; settings: genomovar ribotype 027 M7404
Staphylococcus aureus [20] = assay: Induction of cytoplasmic membrane depolarization in Staphylococcus aureus ATCC 29213 at 32 ug/ml by DiSC3-5 dye based fluorescence method; assay type: organism-based
Escherichia coli [21] = assay: Induction of cytoplasmic membrane permeabilization in Escherichia coli NCTC 10418 at 32 ug/ml by propidium iodide staining based fluorescence method; assay type: organism-based
Escherichia coli [22] = assay: Induction of cytoplasmic membrane depolarization in Escherichia coli NCTC 10418 at 64 ug/ml by DiSC3-5 dye based fluorescence method; assay type: organism-based
Staphylococcus aureus [23] = assay: Induction of cytoplasmic membrane permeabilization in Staphylococcus aureus ATCC 29213 at 32 ug/ml measured after 40 mins by propidium iodide staining based fluorescence method; assay type: organism-based
Staphylococcus aureus [24] = assay: Induction of cytoplasmic membrane permeabilization in Staphylococcus aureus ATCC 29213 at 32 ug/ml by propidium iodide staining based fluorescence method relative to control
Clostridioides difficile [25] = assay: as §1, with “decrease in fecal spore load” for “survival rate”, “by heat shock based plating method” for “(reference value: 0%)”; assay type: functional, organism-based; settings: genomovar ribotype 027 M7404
Staphylococcus aureus [26] = assay: Induction of cytoplasmic membrane permeabilization in Staphylococcus aureus ATCC 29213 at 32 ug/ml measured after 10 mins by propidium iodide staining based fluorescence method; assay type: organism-based
Escherichia coli [27] = assay: Induction of cytoplasmic membrane depolarization in Escherichia coli NCTC 10418 at 4 ug/ml by DiSC3-5 dye based fluorescence method; assay type: organism-based
Escherichia coli [28] = assay: Induction of cytoplasmic membrane permeabilization in Escherichia coli NCTC 10418 at 4 ug/ml by propidium iodide staining based fluorescence method; assay type: organism-based

Compound	hemolysis at 2 h, 50 ug/ml [1] [%]	MIC (Clostridioides difficile [3]) [µg/mL]	Activity (Clostridioides difficile [7])	MIC (Klebsiella pneumoniae) [µg/mL]	CC50 at 20 h [9] [µg/mL]	MIC (Streptococcus pneumoniae) [µg/mL]	MIC (Escherichia coli [10]) [µg/mL]	MIC (Enterococcus faecalis) [µg/mL]	MIC (Acinetobacter baumannii) [µg/mL]	MIC (Pseudomonas aeruginosa) [µg/mL]	MIC (Staphylococcus aureus [12]) [µg/mL]	MIC (Staphylococcus aureus [13]) [µg/mL]	MIC (Clostridioides difficile [14]) [µg/mL]	hemolysis at 2 h, 5 ug/ml [15] [%]	other results
CC(C)CCOc1ccc2ccccc2c1-c1c(OCC(=O)N[C@H](CCCNC(=N)N)Cn2cc(-c3ccccc3)nn2)ccc2ccccc12.Cl	86	8													solubility [2]: Insoluble
CC(C)CCOc1ccc2ccccc2c1-c1c(OCc2cn(C[C@@H](CCCCN)NC(=O)[C@@H](CCCNC(=N)N)NC(=O)CCc3ccccc3)nn2)ccc2ccccc12.Cl.Cl		8	Active												Drug uptake [4]: Not Active; Drug uptake [5]: Active; Activity (Clostridioides difficile [6]): 50%; Drug uptake [8]: Not Active
CC(C)CCOc1ccccc1-c1ccccc1OCc1cn([C@H](CCCCN)C(=O)NCC2CCCCC2)nn1.Cl	98	16		> 32	5.6	8	> 32	8	32	> 32	8	8	32	0	solubility [11]: Soluble
CC(C)CCOc1ccc2ccccc2c1-c1c(OCC(=O)N[C@H](CCCNC(=N)N)C(=O)NCc2ccccc2)ccc2ccccc12.Cl	100	8	inactive	> 32	> 32	2	> 32	2	> 32	> 32	2	4	8	0.3	Activity (Clostridioides difficile [16]): inactive; MIC (Clostridioides difficile [17]): 2 µg/mL; Activity (Clostridioides difficile [18]): inactive; Activity (Clostridioides difficile [19]): inactive
CC(C)CCOc1ccccc1-c1ccccc1OCc1cn([C@H](CCCCN)C(=O)N[C@H](CCCNC(=N)N)Cn2cc(CCc3ccccc3)nn2)nn1.Cl.Cl	12.6	16		16	16.4	8	8	8	8	8	4	2	16	1.4	Activity (Staphylococcus aureus [20]): Active; Activity (Escherichia coli [21]): Active; Activity (Escherichia coli [22]): Active; Activity (Staphylococcus aureus [23]): Active; Activity (Staphylococcus aureus [24]): >500%
CC(C)CCOc1ccccc1-c1ccccc1OCc1cn([C@H](CCCNC(=N)N)C(=O)NC2CCCCC2)nn1.Cl	81.8	8	Active	> 32	19.7	4	> 32	4	32	> 32	4	4	16	1.4	Activity (Staphylococcus aureus [20]): Active; Activity (Clostridioides difficile [16]): inactive; Activity (Escherichia coli [21]): Active; Activity (Escherichia coli [22]): Active; Activity (Clostridioides difficile [18]): inactive; Activity (Clostridioides difficile [25]): Active; Activity (Staphylococcus aureus [26]): Active; Activity (Staphylococcus aureus [24]): >500%
COLISTIN															Activity (Escherichia coli [27]): Active; Activity (Escherichia coli [28]): Active

— ChEMBL document CHEMBL4393656, “Cationic biaryl 1,2,3-triazolyl peptidomimetic amphiphiles targeting Clostridioides (Clostridium) difficile: Synthesis, antibacterial evaluation and an in vivo C. difficile infection model” (Eur J Med Chem, 2019)
